The text below walks through data of patent US9226500B2, “Pesticidal compositions and processes related thereto” (Dow AgroSciences LLC, priority 2012, dated 2016).

Structures are written as SMILES.

For experiment [1], the system named is Beet Armyworm (Spodoptera exigua). Nature of the experiment: Bioassay on Beet Armyworm (BAW), 128-well diet tray assay. The format is in vivo. The note with it: Spodoptera exigua, 168 h; percent mortality of second instar larvae, 50 μg/cm^2 on artificial diet, five to seven days, 25° C.; read-out: BAW Rating.
Experiment [2] deals with Cabbage Looper (Trichoplusia ni). Nature of the experiment: Bioassay on Cabbage Looper (CL), 128-well diet tray assay. The format is in vivo. The note with it: 168 h, percent mortality of second instar larvae, 50 μg/cm^2 on artificial diet, five to seven days, 25° C., read-out: CL Rating. As to the method: Certain molecules disclosed in this document were tested against BAW, CEW and CL using procedures described in the following examples. In the reporting of the results, the “BAW & CEW & CL Rating Table” was used (See Table Section).
Bioassays on CL (Trichoplusia ni)
Bioassays on CL were conducted using a 128-well diet tray assay. One to five second instar CL larvae were placed in each well (3 mL) of the diet tray that had been previously filled with 1 mL of artificial diet to which 50 μg/cm^2 of the test compound (dissolved in 50 μL of 90:10 acetone-water mixture) had been applied (to each of eight wells) and then allowed to dry. Trays were covered with a clear self-adhesive cover, and held at 25° C., 14:10 light-dark for five to seven days. Percent mortality was recorded for the larvae in each well; activity in the eight wells was then averaged.
“Table 4: Assay Results Part 2” (See Table Section).

Turning to `C[C@@H](NC(=O)c1ccc(/C=C/C(c2cc(C(F)(F)F)cc(C(F)(F)F)c2)C(F)(F)F)cc1Br)C(=O)NCC(F)(F)F` (stereo partly drawn) [Compound F14], the pest or weed control at 50 µg/cm2, 50 µg/cm2 in experiment [1] and in experiment [2] was 50 to 100% throughout.

As to `CCC(NC(=O)c1ccc(/C=C/C(c2cc(Cl)c(Cl)c(Cl)c2)C(F)(F)F)cc1C)C(=O)NCC(F)(F)F` (stereo not drawn) [Compound F15A], the pest or weed control at 50 µg/cm2, 50 µg/cm2 in experiment [1] and in experiment [2] was 50 to 100% each time.

In the case of `CC[C@H](NC(=O)c1ccc(/C=C/C(c2cc(Cl)c(Cl)c(Cl)c2)C(F)(F)F)cc1C)C(=O)NCC(F)(F)F` (stereo partly drawn) [Compound F15], the pest or weed control at 50 µg/cm2, 50 µg/cm2 in experiment [1] and in experiment [2] was 50 to 100% throughout.

For the compound `CCC(NC(=O)c1ccc(/C=C/C(c2cc(Cl)c(Cl)c(Cl)c2)C(F)(F)F)cc1C(F)(F)F)C(=O)NCC(F)(F)F` (stereo not drawn) [Compound F16A], the pest or weed control at 50 µg/cm2, 50 µg/cm2 in experiment [1] and in experiment [2] was 50 to 100% each time.

In the case of `CC[C@H](NC(=O)c1ccc(/C=C/C(c2cc(Cl)c(Cl)c(Cl)c2)C(F)(F)F)cc1C(F)(F)F)C(=O)NCC(F)(F)F` (stereo partly drawn) [Compound F16], the pest or weed control at 50 µg/cm2, 50 µg/cm2 in experiment [1] and in experiment [2] was 50 to 100% each time.

As to `Cc1cc(/C=C/C(c2cc(Br)cc(Br)c2)C(F)(F)F)ccc1C(=O)N[C@H](C)C(=O)NCC(F)(F)F` (stereo partly drawn) [Compound F17], the pest or weed control at 50 µg/cm2, 50 µg/cm2 in experiment [1] and in experiment [2] was 50 to 100% throughout.

Consider `C[C@H](NC(=O)c1ccc(/C=C/C(c2cc(Cl)c(Cl)c(Cl)c2)C(F)(F)F)cc1C(F)(F)F)C(=O)NCC(F)(F)F` (stereo partly drawn) [Compound F18], for which the pest or weed control at 50 µg/cm2, 50 µg/cm2 in experiment [1] and in experiment [2] was 50 to 100% throughout.

Take `C[C@@H](NC(=O)c1ccc(/C=C/C(c2cc(Br)cc(Br)c2)C(F)(F)F)cc1Br)C(=O)NCC(F)(F)F` (stereo partly drawn) [Compound F19]: the pest or weed control at 50 µg/cm2, 50 µg/cm2 in experiment [1] and in experiment [2] was 50 to 100% each time.

As to `C[C@@H](NC(=O)c1ccc(/C=C/[C@@H](c2cc(Cl)c(Cl)c(Cl)c2)C(F)(F)F)cc1C(F)(F)F)C(=O)NCC(F)(F)F` [Compound F20B, N—((R)-1-Oxo-1-((2,2,2-trifluoroethyl)amino)propan-2-yl)-4-((E)-4,4,4-trifluoro-3-(3,4,5-trichlorophenyl)but-1-en-1-yl)-2-(trifluoromethyl)benzamide], the pest or weed control at 50 µg/cm2, 50 µg/cm2 in experiment [1] and in experiment [2] was 50 to 100% throughout.

With `C[C@@H](NC(=O)c1ccc(/C=C\C(c2cc(Cl)c(Cl)c(Cl)c2)C(F)(F)F)cc1C(F)(F)F)C(=O)NCC(F)(F)F` (stereo partly drawn) [Compound F20C], the pest or weed control at 50 µg/cm2, 50 µg/cm2 in experiment [1] and in experiment [2] was 50 to 100% each time.

Consider `C[C@@H](NC(=O)c1ccc(/C=C/C(c2cc(Br)cc(Br)c2)C(F)(F)F)cc1C(F)(F)F)C(=O)NCC(F)(F)F` (stereo partly drawn) [Compound F21], for which the pest or weed control at 50 µg/cm2, 50 µg/cm2 in experiment [1] and in experiment [2] was 50 to 100% in each case.

As for `C[C@@H](NC(=O)c1ccc(/C=C/C(c2cccc(C(F)(F)F)c2)C(F)(F)F)cc1Br)C(=O)NCC(F)(F)F` (stereo partly drawn) [Compound F22], the pest or weed control at 50 µg/cm2, 50 µg/cm2 in experiment [1] and in experiment [2] was 50 to 100% in each case.

As to `CCC(NC(=O)c1ccc(/C=C/C(c2cc(Cl)c(Cl)c(Cl)c2)C(F)(F)F)cc1Cl)C(=O)NCC(F)(F)F` (stereo not drawn) [Compound F23A], the pest or weed control at 50 µg/cm2, 50 µg/cm2 in experiment [1] and in experiment [2] was 50 to 100% throughout.

As for `C[C@@H](NC(=O)c1ccc(/C=C/C(c2cc(F)cc(C(F)(F)F)c2)C(F)(F)F)cc1Br)C(=O)NCC(F)(F)F` (stereo partly drawn) [Compound F24], the pest or weed control at 50 µg/cm2, 50 µg/cm2 in experiment [1] and in experiment [2] was 50 to 100% throughout.

As to `C[C@@H](NC(=O)c1ccc(/C=C/C(c2cc(Cl)c(Cl)c(Cl)c2)C(F)(F)F)cc1Cl)C(=O)NCC(F)(F)F` (stereo partly drawn) [Compound F25], the pest or weed control at 50 µg/cm2, 50 µg/cm2 in experiment [1] and in experiment [2] was 50 to 100% in each case.
